# Test results as given in publication PMC11727334, “A self-immolative Kdn-glycoside substrate enables high-throughput screening for inhibitors of Kdnases” (Glycobiology, 2024).
# Where two headings read alike, the source gives them in different places.
# Legend:
# A. fumigatus = tested on: A. fumigatus; set-up: method as in Nesbitt et al. 2018; conditions: ref Nesbitt et al. 2018, cited from earlier work
# [1] = molecular target: T1, Kdnase produced by A. fumigatus (AfK) (Aspergillus fumigatus, UniProt Q4WQS0); test: Inhibition assay of recombinant AfK using 4MU-Kdn as substrate; type: biochemical; conditions: Fig. S10; read-out: IC50
# T1 construct: AfK was expressed and purified as described by Telford et al; made in house
# T1 sequence (Q4WQS0 21-406): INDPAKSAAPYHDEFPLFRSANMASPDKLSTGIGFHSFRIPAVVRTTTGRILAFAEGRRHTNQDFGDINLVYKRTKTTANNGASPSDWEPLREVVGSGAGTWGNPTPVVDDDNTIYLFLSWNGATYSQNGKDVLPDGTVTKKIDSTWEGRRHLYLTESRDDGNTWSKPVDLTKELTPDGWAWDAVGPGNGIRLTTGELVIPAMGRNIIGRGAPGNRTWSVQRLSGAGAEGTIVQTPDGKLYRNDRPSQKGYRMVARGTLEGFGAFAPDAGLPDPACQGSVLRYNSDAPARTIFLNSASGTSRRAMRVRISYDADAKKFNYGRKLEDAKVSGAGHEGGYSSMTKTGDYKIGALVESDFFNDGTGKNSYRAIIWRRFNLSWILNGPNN
# Description: We purchase fresh commercial material for compounds 13 and 14 and performed inhibition assays using recombinant AfK (Methods, Fig. S8, Supporting Information). We determined IC50 values in quadruplicate using 4MU-Kdn as the substrate ([Yeung et al. 2013]). […] We submitted both compounds to a pan-assay interference compounds (PAINS) filter, a compilation of chemical substructures known to show promiscuous biological activities ([Baell and Nissink 2018]). […] We performed standard inhibition assays as described earlier using inhibitor 13 and these recombinant enzymes. […] We also tested inhibitor 13 with the sialidase MvNA, the closest structural homologue to AfK, that is known to cleave a multitude of substrates including Kdn glycosides ([Telford et al. 2011]).
# Each 200 μM reaction mixture was incubated at rt for 2 min prior to the addition of purified sialidase. Inhibitor was added to the reaction mixture and allowed to incubate at rt between 0–60 min in 100 mM sodium acetate buffer pH 4.0 and 0.01% BSA prior to the addition of substrate. The kinetic parameters were determined from initial rate measurements using a substrate concentration of Km/4. The progress of the reaction was continuously monitored for 15 min using a fluorescence spectrophotometer (BioTek Neo 2) and excitation and emission wavelengths of 360 and 450 nm, respectively.
# AfK [2] = molecular target: T2, AfK (Aspergillus fumigatus, UniProt Q4WQS0); conditions: Table S1; ref Telford et al., J Biol Chem, 2011, 10783; cited from earlier work
# T2 construct: AfK was expressed and purified as described by Telford et al; made in house
# T2 sequence (Q4WQS0 21-406): as above
# AfK [3] = molecular target: T2, AfK; test: Differential scanning fluorimetry (DSF) thermal shift assay, AfK; type: binding
# Description: (§1) We next used a separate biophysical technique, differential scanning fluorimetry (DSF), to confirm that these compound bind to the various Kdnases. Specifically, we measured protein melting temperatures in the presence of Kdn2en (2) and candidate ligands 13 and 17 (Fig. 3D). […] We repeated this DSF assay on AtK and TrK and we observed similar trends in thermal shifts (Fig. S14 and Tables S2,S3 and S4, Supporting Information). […] Accordingly, further follow up on this compound would need to be pursued with an awareness of this possibility.
# (§2) Table S3. Differential scanning fluorometry-based (DSF) assay for inhibitors 2, 13, and 17 binding to Af, At, Tr and MvNA. Protein thermal shifts(ΔTm) using DMSO (2.5%), and inhibitors 2, 13, and 17 at 500 µM against the Kdnase of Af, At, Tr and MvNA. Assay done using 5–10 µM enzyme and 100 mM pH 4.0 NaOAc (pH 5.5 MvNA). A temperature range of 25°C to 95°C was used with a gradient of 0.05°C/sec. […]
# (§3) Table S4. Thermal shifts (ΔTm) for stabilization of AfK, AtK, TrK and MvNA on inhibitor binding relative to the DMSO (2.5%) control. […]
# AtK = test: Differential scanning fluorimetry (DSF) thermal shift assay, AtK; type: binding, Aspergillus terreus; conditions: inhibitor 500 µM
# Description: as §1, §2, §3
# TrK = test: Differential scanning fluorimetry (DSF) thermal shift assay, TrK; type: binding, Trichophyton rubrum; conditions: inhibitor 500 µM
# Description: as §1, §2, §3
# MvNA = MvNA (Micromonospora viridifaciens, UniProt Q02834); test: Differential scanning fluorimetry (DSF) thermal shift assay, MvNA; type: binding; conditions: inhibitor 500 µM
# MvNA, sequence (Q02834 38-647): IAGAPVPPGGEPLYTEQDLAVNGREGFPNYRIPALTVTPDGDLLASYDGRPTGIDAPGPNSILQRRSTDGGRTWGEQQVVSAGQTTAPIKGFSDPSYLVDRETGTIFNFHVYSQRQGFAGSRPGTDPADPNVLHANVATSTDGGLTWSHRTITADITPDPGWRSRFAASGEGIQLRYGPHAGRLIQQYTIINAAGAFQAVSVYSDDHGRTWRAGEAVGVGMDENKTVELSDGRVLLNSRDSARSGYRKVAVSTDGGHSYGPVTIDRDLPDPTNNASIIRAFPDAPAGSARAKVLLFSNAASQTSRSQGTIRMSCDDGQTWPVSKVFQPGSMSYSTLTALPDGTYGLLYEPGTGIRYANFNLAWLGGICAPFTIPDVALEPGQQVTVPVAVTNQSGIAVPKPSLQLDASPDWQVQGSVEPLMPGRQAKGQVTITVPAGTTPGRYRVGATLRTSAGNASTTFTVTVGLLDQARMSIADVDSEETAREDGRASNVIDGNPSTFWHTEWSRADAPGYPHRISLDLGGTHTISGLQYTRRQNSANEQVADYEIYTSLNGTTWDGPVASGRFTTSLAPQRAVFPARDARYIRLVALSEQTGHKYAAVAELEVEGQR
# Experimental: as §2, §3
# [4] = molecular target: T1, Kdnase produced by A. fumigatus (AfK); set-up: method as in Telford et al. (3); conditions: Table S2; ref Telford et al. (3); cited from earlier work
# [5] = 100 mM pH 4.0 NaOAc, 5–10 µM enzyme
structure (smiles),measurement,setting,value
C[C@@H]1[C@H](O)[C@@H](C)/C=C/C=C/C=C/C=C/C=C/C=C/C=C/[C@H](O[C@@H]2O[C@H](C)[C@@H](O)[C@H](N)[C@@H]2O)C[C@@H]2O[C@](O)(C[C@@H](O)C[C@@H](O)[C@H](O)CC[C@@H](O)C[C@@H](O)CC(=O)O[C@H]1C)C[C@H](O)[C@H]2C(=O)O [Amphotericin B],survival outcome,A. fumigatus; immunocompromised mice infected with AfK KO spores,improved survival rate
same,survival outcome,A. fumigatus; immunocompromised mice infected with wild-type (WT) A. fumigatus spores,complete mortality
"O=C(O)/C=C/c1ccc(O)c(O)c1 [caffeic acid, reference compound]",IC50,[1],~500 µM
"Cc1cc(=O)oc2cc(O[C@]3(C(=O)O)C[C@H](O)[C@@H](O)[C@H]([C@H](O)[C@H](O)CO)O3)ccc12 [compound 1, 4-methylumbelliferyl 3-deoxy-D-glycero-D-galacto-non-2-ulopyranosidonic acid]",Km,AfK [2],230 ± 20 µM
same,kcat,AfK [2],41 ± 4 s–1
"O=C(O)C1=C[C@H](O)[C@@H](O)[C@H]([C@H](O)[C@H](O)CO)O1 [compound 2, Kdn2en, reference compound]","effect on thermal stability of the folded enzyme (DSF, in words)",AfK [3]; AfK,positive unfolding temperature shifts
same,"protein melting temperature (DSF, Table S3)","AfK [3]; inhibitor 500 µM, 100 mM pH 4.0 NaOAc, 5–10 µM enzyme",53.2 ± 0.1 °C
same,ΔTm at 500 µM,AfK [3]; read-out: Thermal shift (ΔTm) relative to DMSO (2.5%) control,1.7 °C
same,Thermal shift (ΔTm) relative to DMSO (2.5%) control,AtK; Table S4,+3.4 ± 0.1 °C
same,"protein melting temperature (DSF, Table S3)",AtK; [5],55.3 ± 0.1 °C
same,Thermal shift (ΔTm) relative to DMSO (2.5%) control,TrK; Table S4,+15.0 ± 0.2 °C
same,"protein melting temperature (DSF, Table S3)",TrK; [5],49.7 ± 0.2 °C
same,ΔTm at 500 µM,"MvNA; Table S4, read-out: Thermal shift (ΔTm) relative to DMSO (2.5%) control",0.5 °C
same,"protein melting temperature (DSF, Table S3)","MvNA; pH 5.5, 5–10 µM enzyme",54.4 ± 0.1 °C
same,IC50,[4],556 µM
same,Ki,[4],102 µM
